Laboratory results published in patent publication US12441722B2, “Therapeutic agents and methods of treatment” (University of Florida Research Foundation, Incorporated, priority 2020, dated 2025).

What follows are compounds tested on MOLT-4 (assay: Cell viability assay (tetrazolium-based MTS) in MOLT4 cells). Conditions: Homo sapiens, MOLT-4, MOLT4 acute lymphoblastic leukemia cells, 48 h incubation.
Description: Cancer cells from acute lymphoblastic leukemia (MOLT4) were incubated with increasing concentrations of compounds of Examples 1-9 for 48 h. Cell viability was measured by tetrazolium-based MTS assay. 5×10^4 to 1×10^5 suspension cells or 3×10^3 to 5×10^3 adherent cells were seeded and treated in 96-well plates for 48 h. The EC50 values of individual agents were calculated with GraphPad Prism.
In the case of `Cc1ncsc1-c1ccc([C@H](C)NC(=O)[C@@H]2C[C@@H](O)CN2C(=O)[C@@H](NC(=O)CCCCCCCCCS(=O)(=O)NC(=O)c2nc(N3CCc4cccc(C(=O)Nc5nc6ccccc6s5)c4C3)ccc2-c2cnn(CC34CC5CC(CC(C5)C3)C4)c2C)C(C)(C)C)cc1` [degrader #15, 2-(5-(1-(adamantan-1-ylmethyl)-5-methyl-1H-pyrazol-4-yl)-6-(((10-(((S)-1-((2S,4R)-4-hydroxy-2-(((S)-1-(4-(4-methylthiazol-5-yl)phenyl)ethyl)carbamoyl)pyrrolidin-1-yl)-3,3-dimethyl-1-oxobutan-2-yl)amino)-10-oxodecyl)sulfonyl)carbamoyl)pyridin-2-yl)-N-(benzo[d]thiazol-2-yl)-1,2,3,4-tetrahydroisoquinoline-8-carboxamide], the EC50 is reported as 10 to 100 nM.
With `Cc1ncsc1-c1ccc([C@H](C)NC(=O)[C@@H]2C[C@@H](O)CN2C(=O)[C@@H](NC(=O)CCCCCCCCCCS(=O)(=O)NC(=O)c2nc(N3CCc4cccc(C(=O)Nc5nc6ccccc6s5)c4C3)ccc2-c2cnn(CC34CC5CC(CC(C5)C3)C4)c2C)C(C)(C)C)cc1` [degrader #16, 2-(5-(1-(adamantan-1-ylmethyl)-5-methyl-1H-pyrazol-4-yl)-6-(((11-(((S)-1-((2S,4R)-4-hydroxy-2-(((S)-1-(4-(4-methylthiazol-5-yl)phenyl)ethyl)carbamoyl)pyrrolidin-1-yl)-3,3-dimethyl-1-oxobutan-2-yl)amino)-11-oxoundecyl)sulfonyl)carbamoyl)pyridin-2-yl)-N-(benzo[d]thiazol-2-yl)-1,2,3,4-tetrahydroisoquinoline-8-carboxamide] the EC50 was 10 to 100 nM.
Compound `Cc1ncsc1-c1ccc([C@H](C)NC(=O)[C@@H]2C[C@@H](O)CN2C(=O)[C@@H](NC(=O)CCCCCCCS(=O)(=O)NC(=O)c2nc(N3CCc4cccc(C(=O)Nc5nc6ccccc6s5)c4C3)ccc2-c2cc(C#N)n(CC34CC5CC(CC(C5)C3)C4)c2C)C(C)(C)C)cc1` [degrader #18, 2-(5-(1-(adamantan-1-ylmethyl)-5-cyano-2-methyl-1H-pyrrol-3-yl)-6-(((8-(((S)-1-((2S,4R)-4-hydroxy-2-(((S)-1-(4-(4-methylthiazol-5-yl)phenyl)ethyl)carbamoyl)pyrrolidin-1-yl)-3,3-dimethyl-1-oxobutan-2-yl)amino)-8-oxooctyl)sulfonyl)carbamoyl)pyridin-2-yl)-N-(benzo[d]thiazol-2-yl)-1,2,3,4-tetrahydroisoquinoline-8-carboxamide] has an EC50 of 10 to 100 nM.
With `Cc1ncsc1-c1ccc([C@H](C)NC(=O)[C@@H]2C[C@@H](O)CN2C(=O)[C@@H](NC(=O)CCCCCCCNC(=O)c2nc(N3CCc4cccc(C(=O)Nc5nc6ccccc6s5)c4C3)ccc2-c2cnn(CC34CC5CC(CC(C5)C3)C4)c2C)C(C)(C)C)cc1` [degrader #19, 2-(5-(1-(adamantan-1-ylmethyl)-5-methyl-1H-pyrazol-4-yl)-6-((8-(((S)-1-((2S,4R)-4-hydroxy-2-(((S)-1-(4-(4-methylthiazol-5-yl)phenyl)ethyl)carbamoyl)pyrrolidin-1-yl)-3,3-dimethyl-1-oxobutan-2-yl)amino)-8-oxooctyl)carbamoyl)pyridin-2-yl)-N-(benzo[d]thiazol-2-yl)-1,2,3,4-tetrahydroisoquinoline-8-carboxamide] the EC50 was 10 to 100 nM.
`Cc1ncsc1-c1ccc([C@H](CC(=O)NCCNC(=O)c2nc(N3CCc4cccc(C(=O)Nc5nc6ccccc6s5)c4C3)ccc2-c2cnn(CC34CC5CC(CC(C5)C3)C4)c2C)NC(=O)[C@@H]2C[C@@H](O)CN2C(=O)[C@@H](NC(=O)C2(C#N)CC2)C(C)(C)C)cc1` [degrader #20, 2-(5-(1-(adamantan-1-ylmethyl)-5-methyl-1H-pyrazol-4-yl)-6-((2-((S)-3-((2S,4R)-1-((S)-2-(1-cyanocyclopropane-1-carboxamido)-3,3-dimethylbutanoyl)-4-hydroxypyrrolidine-2-carboxamido)-3-(4-(4-methylthiazol-5-yl)phenyl)propanamido)ethyl)carbamoyl)pyridin-2-yl)-N-(benzo[d]thiazol-2-yl)-1,2,3,4-tetrahydroisoquinoline-8-carboxamide] showed an EC50 of 10 to 100 nM.
`Cc1ncsc1-c1ccc([C@H](CC(=O)NCCCNC(=O)c2nc(N3CCc4cccc(C(=O)Nc5nc6ccccc6s5)c4C3)ccc2-c2cnn(CC34CC5CC(CC(C5)C3)C4)c2C)NC(=O)[C@@H]2C[C@@H](O)CN2C(=O)[C@@H](NC(=O)C2(C#N)CC2)C(C)(C)C)cc1` [degrader #21, 2-(5-(1-(adamantan-1-ylmethyl)-5-methyl-1H-pyrazol-4-yl)-6-((3-((S)-3-((2S,4R)-1-((S)-2-(1-cyanocyclopropane-1-carboxamido)-3,3-dimethylbutanoyl)-4-hydroxypyrrolidine-2-carboxamido)-3-(4-(4-methylthiazol-5-yl)phenyl)propanamido)propyl)carbamoyl)pyridin-2-yl)-N-(benzo[d]thiazol-2-yl)-1,2,3,4-tetrahydroisoquinoline-8-carboxamide] was tested, and the EC50 was 100 to 1000 nM.
In the case of `Cc1ncsc1-c1ccc([C@H](CC(=O)NCCCCNC(=O)c2nc(N3CCc4cccc(C(=O)Nc5nc6ccccc6s5)c4C3)ccc2-c2cnn(CC34CC5CC(CC(C5)C3)C4)c2C)NC(=O)[C@@H]2C[C@@H](O)CN2C(=O)[C@@H](NC(=O)C2(C#N)CC2)C(C)(C)C)cc1` [degrader #22, 2-(5-(1-(adamantan-1-ylmethyl)-5-methyl-1H-pyrazol-4-yl)-6-((4-((S)-3-((2S,4R)-1-((S)-2-(1-cyanocyclopropane-1-carboxamido)-3,3-dimethylbutanoyl)-4-hydroxypyrrolidine-2-carboxamido)-3-(4-(4-methylthiazol-5-yl)phenyl)propanamido)butyl)carbamoyl)pyridin-2-yl)-N-(benzo[d]thiazol-2-yl)-1,2,3,4-tetrahydroisoquinoline-8-carboxamide], the EC50 is reported as 10 to 100 nM.
With `Cc1ncsc1-c1ccc([C@H](CC(=O)NCCCCCNC(=O)c2nc(N3CCc4cccc(C(=O)Nc5nc6ccccc6s5)c4C3)ccc2-c2cnn(CC34CC5CC(CC(C5)C3)C4)c2C)NC(=O)[C@@H]2C[C@@H](O)CN2C(=O)[C@@H](NC(=O)C2(C#N)CC2)C(C)(C)C)cc1` [degrader #23, 2-(5-(1-(adamantan-1-ylmethyl)-5-methyl-1H-pyrazol-4-yl)-6-((5-((S)-3-((2S,4R)-1-((S)-2-(1-cyanocyclopropane-1-carboxamido)-3,3-dimethylbutanoyl)-4-hydroxypyrrolidine-2-carboxamido)-3-(4-(4-methylthiazol-5-yl)phenyl)propanamido)pentyl)carbamoyl)pyridin-2-yl)-N-(benzo[d]thiazol-2-yl)-1,2,3,4-tetrahydroisoquinoline-8-carboxamide] the EC50 was 10 to 100 nM.

Same assay, conditions: MOLT4 acute lymphoblastic leukemia cells, 48 h incubation
Compound `Cc1ncsc1-c1ccc([C@H](C)NC(=O)[C@@H]2C[C@@H](O)CN2C(=O)[C@@H](NC(=O)CCCCCCCCCCCS(=O)(=O)NC(=O)c2nc(N3CCc4cccc(C(=O)Nc5nc6ccccc6s5)c4C3)ccc2-c2cnn(CC34CC5CC(CC(C5)C3)C4)c2C)C(C)(C)C)cc1` [degrader #17, 2-(5-(1-(adamantan-1-ylymethyl)-5-methyl-1H-pyrazol-4-yl)-6-(((12-(((S)-1-((2S,4R)-4-hydroxy-2-(((S)-1-(4-(4-methylthiazol-5-yl)phenyl)ethyl)carbamoyl)pyrrolidin-1-yl)-3,3-dimethyl-1-oxobutan-2-yl)amino)-12-oxododecyl)sulfonyl)carbamoyl)pyridin-2-yl)-N-(benzo[d]thiazol-2-yl)-1,2,3,4-tetrahydroisoquinoline-8-carboxamide] has an EC50 of 10 to 100 nM.
`Cc1ncsc1-c1ccc([C@H](CC(=O)NCCCCCCNC(=O)c2nc(N3CCc4cccc(C(=O)Nc5nc6ccccc6s5)c4C3)ccc2-c2cnn(CC34CC5CC(CC(C5)C3)C4)c2C)NC(=O)[C@@H]2C[C@@H](O)CN2C(=O)[C@@H](NC(=O)C2(C#N)CC2)C(C)(C)C)cc1` [degrader #24, 2-(5-(1-(adamantan-1-ylmethyl)-5-methyl-1H-pyrazol-4-yl)-6-((6-((S)-3-((2S,4R)-1-((S)-2-(1-cyanocyclopropane-1-carboxamido)-3,3-dimethylbutanoyl)-4-hydroxypyrrolidine-2-carboxamido)-3-(4-(4-methylthiazol-5-yl)phenyl)propanamido)hexyl)carbamoyl)pyridin-2-yl)-N-(benzo[d]thiazol-2l)-1,2,3,4-tetrahydroisoquinoline-8-carboxamide] was tested, and the EC50 was 100 to 1000 nM.
Compound `Cc1ncsc1-c1ccc([C@H](CC(=O)NCCCCCCCCNC(=O)c2nc(N3CCc4cccc(C(=O)Nc5nc6ccccc6s5)c4C3)ccc2-c2cnn(CC34CC5CC(CC(C5)C3)C4)c2C)NC(=O)[C@@H]2C[C@@H](O)CN2C(=O)[C@@H](NC(=O)C2(C#N)CC2)C(C)(C)C)cc1` [degrader #25, 2-(5-(1-(adamantan-1-ylmethyl)-5-methyl-1H-pyrazol-4-yl)-6-((8-((S)-3-((2S,4R)-1-((S)-2-(1-cyanocyclopropane-1-carboxamido)-3,3-dimethylbutanoyl)-4-hydroxypyrrolidine-2-carboxamido)-3-(4-(4-methylthiazol-5-yl)phenyl)propanamido)octyl)carbamoyl)pyridin-2-yl)-N-(benzo[d]thiazol-2-yl)-1,2,3,4-tetrahydroisoquninoline-8-carboxamide] has an EC50 of 100 to 1000 nM.
For `Cc1c(-c2ccc(N3CCc4cccc(C(=O)Nc5nc6ccccc6s5)c4C3)nc2C(=O)NCCOCCOCCOCC#Cc2cccc3c2C(=O)N(C2CCC(=O)NC2=O)C3=O)cnn1CC12CC3CC(CC(C3)C1)C2` (stereo not drawn) [degrader #26, 2-(5-(1-(adamantan-1-ylmethyl)-5-methyl-1H-pyrazol-4-yl)-6-((2-(2-(2-((3-(2-(2,6-dioxopiperidin-3-yl)-1,3-dioxoisoindolin-4-yl)prop-2-yn-1-yl)oxy)ethoxy)ethoxy)ethyl)carbamoyl)pyridin-2-yl)-N-(benzo[d]thiazol-2-yl)-1,2,3,4-tetrahydroisocuinoline-8-carboxamide], the EC50 was 10 to 100 nM.
